Assay results from PubChem BioAssay AID250 (DTP/NCI, 2004).
Several values for one entry are separate records, joined by “and”; a condition that tells them apart may be missing. Equal entries are not always repeated. Inconclusive results and toxic doses are left out. Rule for the calls: active = survival T/C of 150% or more; inactive = T/C below 125% in these data.

System: BDF1 mice, L1210 leukemia sc, survival T/C
Assay: NCI In Vivo Anticancer Drug Screen. Data for tumor model L1210 Leukemia (subcutaneous) in B6D2F1 (BDF1) mice
Settings: endpoint: median survival time, higher = longer survival
Outline: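 Read-out: T/C ratio, i.e. survival or tumor size in treated mice over that in vehicle-treated controls, from mice bearing transplantable tumors.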

[1] = dose: 14.0 mg/kg/injection, schedule: Q01DX Z (sc), vehicle: saline
[2] = dose: 23.0 mg/kg/injection, schedule: Q01DX Z (sc), vehicle: saline

Measured: T/C

Nc1cc(C(=O)Nc2ccc(C3=NCCN3)cc2)ccc1C(=O)Nc1ccc(C2=NCCN2)cc1
active: dose: 4.0 mg/kg/injection, schedule: Q01DX Z (sc), vehicle: water 215 % of control | dose: 8.0 mg/kg/injection, schedule: Q01DX Z (iv), vehicle: water 215 % of control | dose: 8.0 mg/kg/injection, schedule: Q01DX Z (sc), vehicle: water 230 % of control | dose: 16.0 mg/kg/injection, schedule: Q01DX Z (iv), vehicle: water 215 % of control | dose: 16.0 mg/kg/injection, schedule: Q01DX Z (sc), vehicle: water 245 % of control | dose: 32.0 mg/kg/injection, schedule: Q01DX Z (sc), vehicle: water 195 % of control
inactive: dose: 1.0 mg/kg/injection, schedule: Q01DX Z (iv), vehicle: water 100 % of control | dose: 2.0 mg/kg/injection, schedule: Q01DX Z (iv), vehicle: water 100 % of control | dose: 2.0 mg/kg/injection, schedule: Q01DX Z (sc), vehicle: water 110 % of control | dose: 4.0 mg/kg/injection, schedule: Q01DX Z (iv), vehicle: water 120 % of control

Nc1nc(N)c2cc(CNc3ccc(C(=O)NC(CC(=O)O)C(=O)O)cc3)ccc2n1 (configuration not stated)
active: dose: 0.78 mg/kg/injection, schedule: Q01DX Z (sc), vehicle: saline 216 % of control | dose: 1.56 mg/kg/injection, schedule: Q01DX Z (sc), vehicle: saline 200 % of control | dose: 3.12 mg/kg/injection, schedule: Q01DX Z (sc), vehicle: saline 150 % of control | dose: 50.0 mg/kg/injection, schedule: Q01DX001 (sc), vehicle: saline 166 % of control
inactive: dose: 6.25 mg/kg/injection, schedule: Q01DX Z (sc), vehicle: saline 122 % of control | dose: 6.3 mg/kg/injection, schedule: Q01DX001 (sc), vehicle: saline 122 % of control | dose: 12.5 mg/kg/injection, schedule: Q01DX001 (sc), vehicle: saline 116 % of control | dose: 12.5 mg/kg/injection, schedule: Q01DX Z (sc), vehicle: saline 111 % of control | dose: 25.0 mg/kg/injection, schedule: Q01DX Z (sc), vehicle: saline 100 % of control

COC(=O)Nc1nc2ccc(C(=O)c3cccs3)cc2[nH]1
inactive: dose: 50.0 mg/kg/injection, schedule: Q04DX003 (ip), vehicle: other 118 % of control
active: dose: 70.0 mg/kg/injection, schedule: Q04DX003 (iv), vehicle: other 161 % of control | dose: 100.0 mg/kg/injection, schedule: Q04DX003 (iv), vehicle: other 151 % of control

O=NN(CCF)C(=O)NC12CC3CC(CC(C3)C1)C2
active: dose: 65.0 mg/kg/injection, schedule: Q01DX Z (sc), vehicle: carboxymethylcellulose (CMC) 388 % of control | dose: 108.0 mg/kg/injection, schedule: Q01DX Z (sc), vehicle: carboxymethylcellulose (CMC) 200 % of control
inactive: dose: 14.0 mg/kg/injection, schedule: Q01DX Z (sc), vehicle: carboxymethylcellulose (CMC) 100 % of control | dose: 23.0 mg/kg/injection, schedule: Q01DX Z (sc), vehicle: carboxymethylcellulose (CMC) 100 % of control

CC(C)NNC(=O)c1ccncc1
inactive: dose: 200.0 mg/kg/injection, schedule: Q01DX001 (sc), vehicle: saline 105 % of control and 106 % of control | dose: 400.0 mg/kg/injection, schedule: Q01DX001 (sc), vehicle: saline 100 % of control and 103 % of control

CCCCC(C)(N)C(=O)O (configuration not stated)
inactive: dose: 14.0 mg/kg/injection, schedule: Q01DX Z (sc), vehicle: water 95 % of control | dose: 23.0 mg/kg/injection, schedule: Q01DX Z (sc), vehicle: water 100 % of control | dose: 39.0 mg/kg/injection, schedule: Q01DX Z (sc), vehicle: water 100 % of control | dose: 65.0 mg/kg/injection, schedule: Q01DX Z (sc), vehicle: water 100 % of control | dose: 108.0 mg/kg/injection, schedule: Q01DX Z (sc), vehicle: water 100 % of control | dose: 180.0 mg/kg/injection, schedule: Q01DX Z (sc), vehicle: water 100 % of control | dose: 300.0 mg/kg/injection, schedule: Q01DX Z (sc), vehicle: water 100 % of control

CCN1C=C/C(=C\C=C/c2cc[n+](CC)c3ccccc23)c2ccccc21
inactive: dose: 0.05 mg/kg/injection, schedule: Q01DX Z (sc), vehicle: methylcellulose (MC) 100 % of control | dose: 0.08 mg/kg/injection, schedule: Q01DX Z (sc), vehicle: methylcellulose (MC) 100 % of control | dose: 0.14 mg/kg/injection, schedule: Q01DX Z (sc), vehicle: methylcellulose (MC) 100 % of control | dose: 0.23 mg/kg/injection, schedule: Q01DX Z (sc), vehicle: methylcellulose (MC) 100 % of control | dose: 0.39 mg/kg/injection, schedule: Q01DX Z (sc), vehicle: methylcellulose (MC) 100 % of control | dose: 0.65 mg/kg/injection, schedule: Q01DX Z (sc), vehicle: methylcellulose (MC) 100 % of control | dose: 1.08 mg/kg/injection, schedule: Q01DX Z (sc), vehicle: methylcellulose (MC) 100 % of control | dose: 1.8 mg/kg/injection, schedule: Q01DX Z (sc), vehicle: methylcellulose (MC) 111 % of control | dose: 3.0 mg/kg/injection, schedule: Q01DX Z (sc), vehicle: methylcellulose (MC) 105 % of control

CCCC(=O)NC1=C(N2CC2)C(=O)C(NC(=O)CCC)=C(N2CC2)C1=O
inactive: dose: 1.8 mg/kg/injection, schedule: Q01DX Z (sc), vehicle: saline 100 % of control | dose: 3.0 mg/kg/injection, schedule: Q01DX Z (sc), vehicle: saline 111 % of control | [2] 122 % of control
active: dose: 8.4 mg/kg/injection, schedule: Q01DX Z (sc), vehicle: saline 183 % of control | [1] 150 % of control

Cc1c(CNc2ccc(C(=O)NC(CC(=O)O)C(=O)O)cc2)ccc2nc(N)nc(N)c12 (configuration not stated)
inactive: dose: 0.05 mg/kg/injection, schedule: Q01DX017 (sc), vehicle: sodium bicarbonate 116 % of control | dose: 14.0 mg/kg/injection, schedule: Q01DX017 (sc), vehicle: sodium bicarbonate 95 % of control | dose: 14.0 mg/kg/injection, schedule: Q04DX005 (sc), vehicle: sodium bicarbonate 116 % of control | dose: 23.0 mg/kg/injection, schedule: Q01DX017 (sc), vehicle: sodium bicarbonate 87 % of control
active: dose: 1.8 mg/kg/injection, schedule: Q04DX005 (sc), vehicle: sodium bicarbonate 229 % of control | dose: 3.0 mg/kg/injection, schedule: Q04DX005 (sc), vehicle: sodium bicarbonate 233 % of control | dose: 5.0 mg/kg/injection, schedule: Q04DX005 (sc), vehicle: sodium bicarbonate 170 % of control | dose: 8.4 mg/kg/injection, schedule: Q04DX005 (sc), vehicle: sodium bicarbonate 150 % of control

O=c1[nH]c(=O)n(C2CC(O)C(CO)O2)cc1I (configuration not stated)
inactive: [1] 100 % of control | [2] 100 % of control | dose: 39.0 mg/kg/injection, schedule: Q01DX Z (sc), vehicle: saline 106 % of control | dose: 65.0 mg/kg/injection, schedule: Q01DX Z (sc), vehicle: saline 103 % of control | dose: 108.0 mg/kg/injection, schedule: Q01DX Z (sc), vehicle: saline 103 % of control | dose: 180.0 mg/kg/injection, schedule: Q01DX Z (sc), vehicle: saline 100 % of control

OC(C1CO1)C(O)C1CO1 (configuration not stated)
active: dose: 2.0 mg/kg/injection, schedule: Q01DX009 (ip), vehicle: saline 150 % of control | dose: 2.0 mg/kg/injection, schedule: Q01DX009 (sc), vehicle: water 150 % of control | dose: 4.0 mg/kg/injection, schedule: Q04DX003 (ip), vehicle: water 155 % of control | dose: 4.0 mg/kg/injection, schedule: Q04DX003 (sc), vehicle: water 161 % of control
inactive: dose: 0.12 mg/kg/injection, schedule: Q01DX009 (ip), vehicle: saline 98 % of control | dose: 0.25 mg/kg/injection, schedule: Q01DX009 (ip), vehicle: saline 107 % of control | dose: 0.5 mg/kg/injection, schedule: Q01DX009 (ip), vehicle: saline 107 % of control | dose: 1.0 mg/kg/injection, schedule: Q01DX009 (ip), vehicle: saline 122 % of control | dose: 1.0 mg/kg/injection, schedule: Q01DX009 (ip), vehicle: water 116 % of control | dose: 1.0 mg/kg/injection, schedule: Q01DX009 (sc), vehicle: water 122 % of control | dose: 2.0 mg/kg/injection, schedule: Q04DX003 (ip), vehicle: water 111 % of control | dose: 4.0 mg/kg/injection, schedule: Q01DX009 (ip), vehicle: saline 118 % of control | dose: 8.0 mg/kg/injection, schedule: Q04DX003 (ip), vehicle: water 88 % of control | dose: 8.0 mg/kg/injection, schedule: Q04DX003 (sc), vehicle: water 116 % of control
